Values of other authors, collected in patent US20170348285A1, “TREATMENT OF DRY EYE DISEASE WITH PARASYMPATHETIC & ANTI-SYMPATHETIC AGENTS” (priority 2016, published 2017).

Experiments:
[1] = topical 0.05%, treatment for two months
[2] = systemic administration
[3] = topical formulation

| floppy iris syndrome (during eye surgery) | retrograde ejaculation (in vivo) | change in pupil size [1] | spasms of accommodation [3] | SMILES | tear production [1] | efficacy as treatment of dry eye disease [2] |
| --- | --- | --- | --- | --- | --- | --- |
| can cause the floppy iris syndrome | can cause retrograde ejaculation |  |  | CCOc1ccccc1OCCN[C@H](C)Cc1ccc(OC)c(S(N)(=O)=O)c1 [tamsulosin] |  |  |
|  |  | without any change in pupil size | cause spasms of accommodation | CC[C@@H]1C(=O)OC[C@@H]1Cc1cncn1C [pilocarpine] | stimulate tear production | effective systemic treatment of dry eye disease |
